Laboratory results taken from article PMC8533949, “Biocatalytic Production of Aldehydes: Exploring the Potential of Lathyrus cicera Amine Oxidase” (Biomolecules, 2021).

Test system: T1, Lathyrus cicera amine oxidase (LCAO)
T1 construct: copper/TPQ enzyme
Experiment: coupled peroxidase assay (AAP/DCHBS, […] nm), initial rates
Format: biochemical
Conditions: pH 7, 20 mM phosphate, 25 °C, air O2

Structure (SMILES)	Km [µM]
NCCc1ccc(O)cc1 [1a]	600
NCCc1ccccc1 [2a]	1200
COc1ccc(CCN)cc1O [3a]	1580
COc1cc(CCN)ccc1O [4a]	1310
COc1ccc(CCN)cc1OC [5a]	1000
COc1ccc(CCN)cc1 [6a]	5370
COc1cccc(CCN)c1 [7a]	470
NCCc1ccc2c(c1)OCO2 [8a]	3830
NCCc1ccc(Cl)cc1 [10a]	3380
NCCN1CCCCC1 [11a]	420
NCCN1CCOCC1 [12a]	6460
NCCC1CCCCC1 [13a]	1440
NCCC1=CCCCC1 [14a]	1900
NCCCN1CCOCC1 [15a]	17000
NCCCn1ccnc1 [16a]	610
NCCCN1CCCC1 [17a]	2300
CN(C)CCN [18a]	230
CN(C)CCCN [19a]	8800
